How the values were obtained:
[1] = 298.15 K; 101.33 kPa; Liquid
[2] = refractive index (Na D-line) (dimensionless); settings: 298.15 K; 101.33 kPa; Liquid; Standard Abbe refractometry
[3] = xn = mol fraction of the nth substance listed; settings: 298.15 K, 101 kPa, Liquid, Vibrating tube method
[4] = refractive index (Na D-line) (dimensionless); xn = mol fraction of the nth substance listed; settings: 298.15 K, 101 kPa, Liquid, Standard Abbe refractometry

CC(=O)CC(C)=O [2,4-pentanedione]
Settings | mass density [kg/m3] | refractive index
[1] | 971 | –
[2] | – | 1.4509

ClC(Cl)Cl [trichloromethane]
Settings | mass density [kg/m3] | refractive index
[1] | 1478 | –
[2] | – | 1.443

CC(=O)CC(C)=O [2,4-pentanedione] + ClC(Cl)Cl
Settings | mass density, [3] [kg/m3] | refractive index, [4]
x2 = 0.0498 | 988.5 | 1.4498
x2 = 0.0996 | 1009.2 | 1.4497
x2 = 0.2007 | 1052.6 | 1.4496
x2 = 0.3002 | 1097.2 | 1.4494
x2 = 0.4002 | 1144.3 | 1.4492
x2 = 0.4999 | 1193.6 | 1.4487
x2 = 0.5997 | 1245.4 | 1.4482
x2 = 0.7007 | 1300.4 | 1.4475
x2 = 0.7997 | 1356.8 | 1.4465
x2 = 0.899 | 1415.6 | 1.445
x2 = 0.9494 | 1446.3 | 1.4442

Source: the NIST ThermoML archive (doi:10.1021/je100747y)
